Measurements reported in patent EP0072027A1, “Antiviral compounds” (THE WELLCOME FOUNDATION LIMITED, priority 1981, dated 1983).
Converted amounts (≈) assume the structure as drawn.

Key:
[1] = biological target: adenosine deaminase (Homo sapiens, UniProt P00813); details: Tetrahedron Letters, 21, 1980, 327-330; cited from earlier work
[2] = test system: herpes simplex virus type 1; assay: Comparative in vivo activity against herpetic encephalitis in mice (Example 18); parameters: species or system CD.1 mice; details: for Mean reciprocal survival time: 100 mg/kg/dose twice daily for 4½ days, 300 LD50
Experimental: CD.1 mice weighing 16 - 20 gm were obtained from Charles River, Manston, Kent, U.K. The animals were housed in groups of approximately 10 and were given food and water ad lib.
The compounds namely acyclovir, 134U, 759U and 457U, were prepared as suspensions or solutions in sterile water at a concentration of 20 mg/ml prior to each experiment, and were stored at 4°C during the dosing period.
The ICI strain of herpes simplex virus type 1 was used for all experiments at a concentration of 300 LD50 (10^5 pfu)/ml). Dilutions from virus stocks ([…]) were prepared in PBS 'A'.
The test procedure is analoguous to that described in Example 13.
Three experiments were performed, in which three routes of compound administration were examined: i) subcutaneous, ii) oral and iii) intraperitoneal. […]

[3] = Solubility in water; type: physicochemical
Description: As mentioned above, the compounds of formula (I) have the important advantage of having a greater solubility in water than acyclovir. Thus, the compounds of formula (I) wherein X is an oxygen atom and R is a hydroxy group or amino group have solubilities of 0.4 -.0.5% and 2 - 3% w/w respectively compared with a figure of 0.14% w/w for acyclovir.

[4] = test system: EHV-1 Pneumabort vaccine strain; assay: Comparative in vivo activity against equine rhinopneumonitis virus in hamsters, medicated drinking water (Example 15); parameters: species or system Syrian hamsters; details: for Cumulative mortality (out of 15) on day: water conc. 0.075 mg/ml, average intake 6.6-6.8 mg/kg/day
Experimental: 50 male WO/CR Syrian hamsters were caged randomly in 10 groups of 5, with water and food (seed mix) ad lib. Hamsters were weighed on Days -3, 0, 4, and/or- at death/sacrifice. Water consumption was recorded over Days -3 to 0 to 4.
EHV-1 Pneumabort vaccine strain stored as a 10^-1 dilution, was further diluted 10^-1 in PBS for infection. On Day 0, hamsters in Groups 1-9 received 0.2 ml virus inoculum s/c in the left flank equivalent to about 2 x 10^5 PFU (plaque-forming units).
457U and 759U were dissolved in drinking water at 0.075 mg/ml. Assuming an average daily intake of […], this would result in a daily dose of around 10 mg/kg. Medicated water was provided from approximately 5 hours pre-infection for 96 hours, as below
The drug intake was calculated from the weight of the animals and the water consumption recorded over the period of the experiment.

Sequence of adenosine deaminase (P00813 whole entry): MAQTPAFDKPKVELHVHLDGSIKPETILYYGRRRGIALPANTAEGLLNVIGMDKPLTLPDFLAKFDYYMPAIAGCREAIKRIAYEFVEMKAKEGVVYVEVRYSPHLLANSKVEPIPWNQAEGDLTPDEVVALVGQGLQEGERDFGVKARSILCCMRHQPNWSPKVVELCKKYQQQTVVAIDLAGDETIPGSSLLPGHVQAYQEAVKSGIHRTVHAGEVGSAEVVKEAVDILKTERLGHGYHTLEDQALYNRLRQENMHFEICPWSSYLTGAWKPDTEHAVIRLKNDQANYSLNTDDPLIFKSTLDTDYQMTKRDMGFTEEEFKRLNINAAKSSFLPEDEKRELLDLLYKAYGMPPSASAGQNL

## Nc1ncnc2c1ncn2COC(CO)CO
[1]
  competitive inhibition of the enzyme: weak competitive inhibitor
  substrate for the enzyme: poor substrate

## Nc1nc(N)c2ncn(COCCO)c2n1 [Example 134U, 2-amino-9-(2-hydroxy-methoxymethyl) adenine, reference compound]
[2]; Oral
  Mean reciprocal survival time: 0.222
[2]; i.p.
  Mean reciprocal survival time: 0.231
[2]; s.c.
  Mean reciprocal survival time: 0.226

## Nc1nc(N)c2ncn(COC(CO)CO)c2n1 [Example 457U, 9-[(2-hydroxy-1-hydroxymethylethoxy)methyl]-2,6-diaminopurine]
[3]
  solubility: 20 to 30 mg/mL (≈ 78.7 to 118 mM)
[4]; in 15 treated hamsters, 14 deaths in 15 untreated controls
  deaths from virus-induced hepatitis: 1
[4]; orally in drinking water, approximately 7 mg/kg/day
  prevention of EHV-1 induced mortality: almost completely prevented
[4]; day 2
  Cumulative mortality (out of 15) on day: 0
[4]; day 3
  Cumulative mortality (out of 15) on day: 1
[4]; day 4+
  Cumulative mortality (out of 15) on day: 1
[2]; Oral
  Mean reciprocal survival time: 0.155
[2]; any of the three routes, difference highly significant
  antiviral effect compared with acyclovir and 134U: greatest antiviral effect
[2]; i.p.
  Mean reciprocal survival time: 0.077
[2]; s.c.
  Mean reciprocal survival time: 0.102
